Source: patent US20240150334A1, “HSD17B13 INHIBITORS AND/OR DEGRADERS” (Pfizer Inc., priority 2022, published 2024)
Counter-ions that a name gives are not always drawn.

Experiments:
HSD17B13 enzyme = HSD17B13 enzyme (Homo sapiens (Human), UniProt Q7Z5P4); assay: hHSD17B13 IC50 Assay (FAC beta-estradiol), purified protein enzyme activity assay with NAD(P)H-Glo luciferase readout; assay type: biochemical; settings: geometric mean, 12 μM FAC beta-estradiol, 500 μM NAD+, read-out: hHSD17B13_IC50 GMean IC50
Chain of HSD17B13 enzyme (Q7Z5P4 20-300): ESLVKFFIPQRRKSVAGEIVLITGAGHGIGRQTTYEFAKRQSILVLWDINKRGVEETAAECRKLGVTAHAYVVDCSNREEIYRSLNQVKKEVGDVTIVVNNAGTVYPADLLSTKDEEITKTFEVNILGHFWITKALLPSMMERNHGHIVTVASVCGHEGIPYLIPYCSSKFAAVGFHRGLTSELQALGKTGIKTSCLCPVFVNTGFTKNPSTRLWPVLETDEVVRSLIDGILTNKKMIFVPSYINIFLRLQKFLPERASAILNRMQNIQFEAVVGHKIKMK
Procedure: The following protocols may of course be varied by those skilled in the art. hHSD17B13 IC50 Assay (FAC beta-estradiol)
HSD17B13 enzyme inhibition potency of test compounds was determined using a purified protein biochemical enzyme activity assay, using NAD(P)H-Glo luciferase readout (Promega). HSD17B13 enzyme uses the oxidized form of nicotinamide adenine dinucleotide (NAD+) as a cofactor during metabolism of Beta-Estradiol (substrate) to […], while converting NAD+ to the reduced form (NADH). The Promega NAD(P)H-Glo™ assay is a homogeneous bioluminescent assay that generates a light signal from biochemical reactions that contain NADH (or nicotinamide adenine dinucleotide phosphate, NADPH). In the presence of NADH (or NADPH), the enzyme Reductase reduces a proluciferin reductase substrate to form luciferin. Luciferin then is quantified using Ultra-Glo™ Recombinant Luciferase (rLuciferase), and the light signal produced is proportional to the amount of NAD(P)H in the sample. […] The reaction was initiated by the addition of 2 μL/well purified HSD17B13 protein (30 nM FAC in assay buffer). Compound, substrate mix and HSD17B13 protein was incubated in the dark at room temperature for 2 hours before the addition of 3 μL/well NAD(P)H-Glo detection reagent, prepared from luciferase detection reagent and reductase/reductase substrate, as per manufacturer's instructions (Promega, G9061). Detection reagent was incubated in the dark for 1 hour at room temperature before plates were read on the Envision plate reader (Perkin Elmer) using a luminescent protocol. Data expressed as relative luminescent units (RLUs) were then normalized to control wells using Activity Base (IDBS). Zero percent effect (ZPE) was defined as RLUs generated from uninhibited HSD17B13 protein (vehicle control).

wild type human HSD17B13 = wild type human HSD17B13 (Homo sapiens (Human), UniProt Q7Z5P4); assay: HEK_Beta-Est LCMS_IC50_Tekcel, whole-cell HEK-HSD17B13 inhibition assay, estrone production by LCMS; assay type: cell-based; settings: geometric mean, HEK cells stably expressing wild type human HSD17B13, 25 μM FAC beta-estradiol, read-out: HEK_Beta-Est LCMS_IC50—Tekcel GMean IC50
Chain of wild type human HSD17B13 (Q7Z5P4 20-300): as above
In short: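 Readout was LCMS quantitation of estrone made from beta-estradiol with NAD+ as cofactor. Whole HEK-HSD17B13 cells were given compound for 1 hour, then the reaction for 2 hours, both at 37° C. Product area ratios were normalized to vehicle controls as zero percent effect.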

Structure (SMILES) | IC50 (HSD17B13 enzyme) | IC50 (wild type human HSD17B13)
CC(C)n1cc(-c2ccc3cn([C@H]4CC[C@H](CNC(=O)c5cc(F)c(O)c(F)c5)CC4)nc3c2)cn1 [Example 40, 3,5-difluoro-4-hydroxy-N-{[(1r,4r)-4-{6-[1-(propan-2-yl)-1H-pyrazol-4-yl]-2H-indazol-2-yl}cyclohexyl]methyl} benzamide] | 4.3 nM | 160 nM
O=C(NC[C@]12CC[C@](n3cc4cc(C(F)(F)F)ccc4n3)(CC1)CC2)c1cc(F)c(O)c(F)c1 [Example 125, 3,5-difluoro-4-hydroxy-N-({4-[5-(trifluoromethyl)-2H-indazol-2-yl]bicyclo[2.2.2]octan-1-yl}methyl)benzamide] | 17 nM | 250 nM
COc1ncc(-c2ccc3cn([C@H]4CC[C@H](CNC(=O)c5cc(F)c(O)c(F)c5)CC4)nc3c2)cn1 [Example 73, 3,5-difluoro-4-hydroxy-N-({(1r,4r)-4-[6-(2-methoxypyrimidin-5-yl)-2H-indazol-2-yl]cyclohexyl}methyl) benzamide] | 13 nM | 170 nM
O=C(NC[C@H]1CC[C@H](n2cc3ccc(-c4ncccn4)cc3n2)CC1)c1cc(F)c(O)c(F)c1 [Example 24, 3,5-difluoro-4-hydroxy-N-({(1r,4r)-4-[6-(pyrimidin-2-yl)-2H-indazol-2-yl]cyclohexyl}methyl) benzamide] | 14 nM | 120 nM
O=C(NC[C@H]1CC[C@H](n2cc3cc(Cl)ccc3n2)CC1)c1cc(F)c(O)c(F)c1 [Example 132, N-{[(1r,4r)-4-(5-chloro-2H-indazol-2-yl)cyclohexyl]methyl}-3,5-difluoro-4-hydroxybenzamide, ammonium salt] | 14 nM | 140 nM
Cc1ncc(-c2ccc3cn([C@H]4CC[C@H](CNC(=O)c5cc(F)c(O)c(F)c5)CC4)nc3c2)cn1 [Example 77, 3,5-difluoro-4-hydroxy-N-({(1r,4r)-4-[6-(2-methylpyrimidin-5-yl)-2H-indazol-2-yl]cyclohexyl}methyl) benzamide] | 13 nM | 160 nM
O=C(NC[C@H]1CC[C@H](N2Cc3cc(Cl)ccc3C2=O)CC1)c1cc(F)c(O)cc1F [Example 186, N-{[(1r,4r)-4-(5-chloro-1-oxo-1,3-dihydro-2H-isoindol-2-yl)cyclohexyl]methyl}-2,5-difluoro-4-hydroxybenzamide] | 15 nM | 480 nM
Cn1cc(-c2cc3cn([C@H]4CC[C@H](CNC(=O)c5cc(F)c(O)c(F)c5)CC4)nc3cn2)cn1 [Example 200, 3,5-difluoro-4-hydroxy-N-({(1r,4r)-4-[5-(1-methyl-1H-pyrazol-4-yl)-2H-pyrazolo[3,4-c]pyridin-2-yl]cyclohexyl}methyl) benzamide] | 10 nM | 350 nM
O=C(NC[C@H]1CC[C@H](c2nc(-c3ccc(C(F)(F)F)cn3)no2)CC1)c1cc(F)c(O)c(F)c1 [Example 2, 3,5-Difluoro-4-hydroxy-N-{[(1r,4r)-4-{3-[5-(trifluoromethyl)pyridin-2-yl]-1,2,4-oxadiazol-5-yl}cyclohexyl]methyl}benzamide] | 12 nM | 470 nM
COc1ccc(-c2noc([C@]34CC[C@](CNC(=O)c5cc(F)c(O)c(F)c5)(CC3)CC4)n2)nn1 [Example 124, 3,5-difluoro-4-hydroxy-N-({4-[3-(6-methoxypyridazin-3-yl)-1,2,4-oxadiazol-5-yl]bicyclo [2.2.2]octan-1-yl}methyl)benzamide] | 7.1 nM | 160 nM
COc1nn(C)cc1-c1ccc2cn([C@H]3CC[C@H](CNC(=O)c4cc(F)c(O)c(F)c4)CC3)nc2c1 [Example 42, 3,5-difluoro-4-hydroxy-N-({(1r,4r)-4-[6-(3-methoxy-1-methyl-1H-pyrazol-4-yl)-2H-indazol-2-yl]cyclohexyl}methyl) benzamide] | 11 nM | 260 nM
O=C(NC[C@H]1CC[C@H](n2cc(-c3ccc4nccnc4c3)nn2)CC1)c1cc(F)c(O)c(F)c1 [Example 18, 3,5-Difluoro-4-hydroxy-N-({(1r,4r)-4-[4-(quinoxalin-6-yl)-1H-1,2,3-triazol-1-yl]cyclohexyl}methyl)benzamide] | 18 nM | 420 nM
Cn1cc(-c2ccc3cn([C@H]4CC[C@H](CNC(=O)c5cc(F)c(O)c(F)c5F)CC4)nc3c2)cn1 [Example 5, 2,3,5-Trifluoro-4-hydroxy-N-({(1r,4r)-4-[6-(1-methyl-1H-pyrazol-4-yl)-2H-indazol-2-yl]cyclohexyl}methyl)benzamide, trifluoroacetate salt] | > 2500 nM | 72 nM
COc1ccc2nn([C@H]3CC[C@H](CNC(=O)c4cc(F)c(O)c(F)c4)CC3)cc2c1 [Example 129, 3,5-difluoro-4-hydroxy-N-{[(1r,4r)-4-(5-methoxy-2H-indazol-2-yl)cyclohexyl]methyl}benzamide] | 33 nM | 400 nM
O=C(NC[C@H]1CC[C@H](n2cc3ccc(Cl)cc3n2)CC1)c1cc(F)c(O)cc1F [Example 144, N-{[(1r,4r)-4-(6-chloro-2H-indazol-2-yl)cyclohexyl]methyl}-2,5-difluoro-4-hydroxybenzamide, trifluoroacetate salt] | 14 nM | 440 nM
O=C(NC[C@H]1CC[C@H](n2cc3ccc(-c4cnccn4)cc3n2)CC1)c1cc(F)c(O)c(F)c1 [Example 65, 3,5-difluoro-4-hydroxy-N-({(1r,4r)-4-[6-(pyrazin-2-yl)-2H-indazol-2-yl]cyclohexyl}methyl) benzamide] | 13 nM | 170 nM
O=C(NC[C@H]1CC[C@H](c2nc(-c3ncc(C(F)(F)F)cn3)no2)CC1)c1cc(F)c(O)c(F)c1 [Example 4, 3,5-Difluoro-4-hydroxy-N-{[(1r,4r)-4-{3-[5-(trifluoromethyl)pyrimidin-2-yl]-1,2,4-oxadiazol-5-yl}cyclohexyl]methyl}benzamide] | 5.5 nM | 290 nM
COc1cnc(-c2noc([C@H]3CC[C@H](CNC(=O)c4cc(F)c(O)c(F)c4)CC3)n2)cn1 [Example 127, 3,5-difluoro-4-hydroxy-N-({(1r,4r)-4-[3-(5-methoxy-pyrazin-2-yl)-1,2,4-oxadiazol-5-yl]cyclohexyl}methyl) benzamide] | 13 nM | 350 nM
O=C(NC[C@H]1CC[C@H](c2nc(-c3ccc(C(F)(F)F)nc3)no2)CC1)c1cc(F)c(O)cc1F [Example 197, 2,5-difluoro-4-hydroxy-N-{[(1r,4r)-4-{3-[6-(trifluoromethyl)pyridin-3-yl]-1,2,4-oxadiazol-5-yl}cyclohexyl]methyl} benzamide] | 39 nM | 470 nM
O=C(NC[C@H]1CC[C@H](n2cc3ccc(-c4cnn(C(F)F)c4)cc3n2)CC1)c1cc(F)c(O)c(F)c1 [Example 44, N-{[(1r,4r)-4-{6-[1-(difluoromethyl)-1H-pyrazol-4-yl]-2H-indazol-2-yl}cyclohexyl]methyl}-3,5-difluoro-4-hydroxybenzamide] | < 2.6 nM | 92 nM
O=C(NC[C@H]1CC[C@H](c2noc(-c3ccc(C(F)(F)F)cn3)n2)CC1)c1cc(F)c(O)c(F)c1 [Example 13, 3,5-Difluoro-4-hydroxy-N-{[(1r,4r)-4-{5-[5-(trifluoromethyl)pyridin-2-yl]-1,2,4-oxadiazol-3-yl}cyclohexyl]methyl}benzamide] | 17 nM | 470 nM
COc1cccc2nn([C@H]3CC[C@H](CNC(=O)c4cc(F)c(O)c(F)c4)CC3)cc12 [Example 122, 3,5-difluoro-4-hydroxy-N-{[(1r,4r)-4-(4-methoxy-2H-indazol-2-yl)cyclohexyl]methyl} benzamide] | 14 nM | 310 nM
COc1ccc(-c2noc([C@]34CC[C@](CNC(=O)c5cc(F)c(O)c(F)c5F)(CC3)CC4)n2)nn1 [Example 15, 2,3,5-Trifluoro-4-hydroxy-N-({4-[3-(6-methoxypyridazin-3-yl)-1,2,4-oxadiazol-5-yl]bicyclo[2.2.2]octan-1-yl}methyl)benzamide] | 7.1 nM | 220 nM
Cn1ncc(-c2ccc3cn([C@H]4CC[C@H](CNC(=O)c5cc(F)c(O)c(F)c5)CC4)nc3c2)c1C(F)(F)F [Example 46, 3,5-difluoro-4-hydroxy-N-{[(1r,4r)-4-{6-[1-methyl-5-(trifluoro-methyl)-1H-pyrazol-4-yl]-2H-indazol-2-yl}cyclohexyl]methyl}benzamide] | 9.5 nM | 450 nM
O=C(NC[C@H]1CC[C@H](n2cc3cc(Cl)ccc3n2)CC1)c1cc(F)c(O)cc1F [Example 145, N-{[(1r,4r)-4-(5-chloro-2H-indazol-2-yl)cyclohexyl]methyl}-2,5-difluoro-4-hydroxybenzamide, trifluoroacetate salt] | 18 nM | 260 nM
